From patent US20260193264A1, “BENZOYPARAZINE PYRAZINES AND THEIR USES” (FOGHORN THERAPEUTICS INC., priority 2022, published 2026) come the findings set out here.

Assay [1] concerns the target T1, HiBit-BRG1 fusion protein in stable HeLa cell line expressing HiBit-BRG1 and LgBit (Homo sapiens, UniProt P51532).
T1 construct: expressed in transfected cells
The assay is described as follows: HiBiT-BRG1 cell-based degradation assay (Nano-Glo HiBiT, 24 h). As to conditions: HeLa HiBit-BRG1/LgBit cells; for DC50: read-out: BRMG1 HiBit Degradation IC50; for Dmax: top dose 30 μM, read-out: BRG1 HiBit Degradation Maximum (%). An outline of the steps: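 Stable HeLa line co-expressing HiBiT-BRG1 and LgBiT, compound-treated 24 h; luminescence read after Nano-Glo HiBiT lytic reagent. % degradation normalised between DMSO (high control) and 2 μM reference BRM/BRG1 degrader (low control).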
(The HiBiT peptide binds its large partner to form an active luciferase.)

For assay [2], the target named is T2, HiBiT-BRM fusion protein in stable HeLa cell line (Homo sapiens, UniProt P51531).
T2 construct: expressed in transfected cells
The assay is described as follows: HiBiT-BRM cell-based degradation assay (Nano-Glo HiBiT Lytic Detection, 24 h). More on the design: DC50: scale not given here. To be noted: HeLa HiBiT-BRM cells; for DC50: read-out: BRM HiBit Degradation IC50; for BRM HiBit Degradation Maximum (%): top dose 30 μM. In outline: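 Luminescence from HiBiT/LgBiT complementation after lysis reports remaining HiBiT-BRM in stable HeLa cells exposed to compound for 24 h. Dosing used 3-fold serial dilutions, 10 points, 30 μM top final concentration. DMSO and a 2 μM BRM/BRG1 degrader standard defined 0% and 100% degradation.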

T1 sequence (P51532 whole entry, the tested form may be a part): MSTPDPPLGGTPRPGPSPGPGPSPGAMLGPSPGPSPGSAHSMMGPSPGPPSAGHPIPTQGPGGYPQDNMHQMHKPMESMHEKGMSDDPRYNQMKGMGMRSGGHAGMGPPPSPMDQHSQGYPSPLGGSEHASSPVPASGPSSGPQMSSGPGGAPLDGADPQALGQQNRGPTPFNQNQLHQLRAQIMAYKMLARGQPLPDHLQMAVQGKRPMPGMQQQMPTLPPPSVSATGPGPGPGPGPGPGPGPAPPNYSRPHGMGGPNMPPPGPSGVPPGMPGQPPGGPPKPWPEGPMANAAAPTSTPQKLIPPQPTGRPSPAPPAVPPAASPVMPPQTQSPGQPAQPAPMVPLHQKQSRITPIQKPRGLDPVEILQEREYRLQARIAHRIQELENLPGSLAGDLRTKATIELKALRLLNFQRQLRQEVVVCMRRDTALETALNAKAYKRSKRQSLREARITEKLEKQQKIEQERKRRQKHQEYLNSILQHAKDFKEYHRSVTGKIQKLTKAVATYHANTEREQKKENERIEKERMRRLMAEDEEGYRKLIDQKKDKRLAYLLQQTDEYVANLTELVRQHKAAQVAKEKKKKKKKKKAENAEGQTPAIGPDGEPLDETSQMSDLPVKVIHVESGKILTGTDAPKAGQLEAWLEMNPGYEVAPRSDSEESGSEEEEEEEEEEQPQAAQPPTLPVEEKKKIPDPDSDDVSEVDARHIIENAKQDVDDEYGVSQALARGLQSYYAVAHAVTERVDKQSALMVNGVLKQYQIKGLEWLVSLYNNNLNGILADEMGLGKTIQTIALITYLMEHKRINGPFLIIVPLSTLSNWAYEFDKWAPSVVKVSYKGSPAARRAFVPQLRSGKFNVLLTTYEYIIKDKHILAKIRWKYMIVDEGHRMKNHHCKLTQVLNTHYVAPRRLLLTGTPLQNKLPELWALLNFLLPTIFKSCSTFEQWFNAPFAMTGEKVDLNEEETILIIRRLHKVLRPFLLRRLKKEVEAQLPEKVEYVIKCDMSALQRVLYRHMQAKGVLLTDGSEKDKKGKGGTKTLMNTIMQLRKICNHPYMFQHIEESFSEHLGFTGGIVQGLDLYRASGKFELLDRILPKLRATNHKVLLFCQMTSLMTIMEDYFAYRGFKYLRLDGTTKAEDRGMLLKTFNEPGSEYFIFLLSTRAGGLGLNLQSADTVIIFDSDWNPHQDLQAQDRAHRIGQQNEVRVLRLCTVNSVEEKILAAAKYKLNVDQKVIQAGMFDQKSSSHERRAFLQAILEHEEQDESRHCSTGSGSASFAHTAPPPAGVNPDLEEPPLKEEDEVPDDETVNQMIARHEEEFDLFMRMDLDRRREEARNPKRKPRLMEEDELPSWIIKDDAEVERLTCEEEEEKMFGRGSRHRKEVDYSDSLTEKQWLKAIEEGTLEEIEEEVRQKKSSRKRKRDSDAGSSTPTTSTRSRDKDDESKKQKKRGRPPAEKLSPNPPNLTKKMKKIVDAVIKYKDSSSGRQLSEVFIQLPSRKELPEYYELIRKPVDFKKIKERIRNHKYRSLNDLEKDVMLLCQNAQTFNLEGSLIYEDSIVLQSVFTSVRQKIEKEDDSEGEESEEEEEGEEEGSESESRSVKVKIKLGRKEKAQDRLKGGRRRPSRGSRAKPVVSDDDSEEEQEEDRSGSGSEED
T2 sequence (P51531 whole entry, the tested form may be a part): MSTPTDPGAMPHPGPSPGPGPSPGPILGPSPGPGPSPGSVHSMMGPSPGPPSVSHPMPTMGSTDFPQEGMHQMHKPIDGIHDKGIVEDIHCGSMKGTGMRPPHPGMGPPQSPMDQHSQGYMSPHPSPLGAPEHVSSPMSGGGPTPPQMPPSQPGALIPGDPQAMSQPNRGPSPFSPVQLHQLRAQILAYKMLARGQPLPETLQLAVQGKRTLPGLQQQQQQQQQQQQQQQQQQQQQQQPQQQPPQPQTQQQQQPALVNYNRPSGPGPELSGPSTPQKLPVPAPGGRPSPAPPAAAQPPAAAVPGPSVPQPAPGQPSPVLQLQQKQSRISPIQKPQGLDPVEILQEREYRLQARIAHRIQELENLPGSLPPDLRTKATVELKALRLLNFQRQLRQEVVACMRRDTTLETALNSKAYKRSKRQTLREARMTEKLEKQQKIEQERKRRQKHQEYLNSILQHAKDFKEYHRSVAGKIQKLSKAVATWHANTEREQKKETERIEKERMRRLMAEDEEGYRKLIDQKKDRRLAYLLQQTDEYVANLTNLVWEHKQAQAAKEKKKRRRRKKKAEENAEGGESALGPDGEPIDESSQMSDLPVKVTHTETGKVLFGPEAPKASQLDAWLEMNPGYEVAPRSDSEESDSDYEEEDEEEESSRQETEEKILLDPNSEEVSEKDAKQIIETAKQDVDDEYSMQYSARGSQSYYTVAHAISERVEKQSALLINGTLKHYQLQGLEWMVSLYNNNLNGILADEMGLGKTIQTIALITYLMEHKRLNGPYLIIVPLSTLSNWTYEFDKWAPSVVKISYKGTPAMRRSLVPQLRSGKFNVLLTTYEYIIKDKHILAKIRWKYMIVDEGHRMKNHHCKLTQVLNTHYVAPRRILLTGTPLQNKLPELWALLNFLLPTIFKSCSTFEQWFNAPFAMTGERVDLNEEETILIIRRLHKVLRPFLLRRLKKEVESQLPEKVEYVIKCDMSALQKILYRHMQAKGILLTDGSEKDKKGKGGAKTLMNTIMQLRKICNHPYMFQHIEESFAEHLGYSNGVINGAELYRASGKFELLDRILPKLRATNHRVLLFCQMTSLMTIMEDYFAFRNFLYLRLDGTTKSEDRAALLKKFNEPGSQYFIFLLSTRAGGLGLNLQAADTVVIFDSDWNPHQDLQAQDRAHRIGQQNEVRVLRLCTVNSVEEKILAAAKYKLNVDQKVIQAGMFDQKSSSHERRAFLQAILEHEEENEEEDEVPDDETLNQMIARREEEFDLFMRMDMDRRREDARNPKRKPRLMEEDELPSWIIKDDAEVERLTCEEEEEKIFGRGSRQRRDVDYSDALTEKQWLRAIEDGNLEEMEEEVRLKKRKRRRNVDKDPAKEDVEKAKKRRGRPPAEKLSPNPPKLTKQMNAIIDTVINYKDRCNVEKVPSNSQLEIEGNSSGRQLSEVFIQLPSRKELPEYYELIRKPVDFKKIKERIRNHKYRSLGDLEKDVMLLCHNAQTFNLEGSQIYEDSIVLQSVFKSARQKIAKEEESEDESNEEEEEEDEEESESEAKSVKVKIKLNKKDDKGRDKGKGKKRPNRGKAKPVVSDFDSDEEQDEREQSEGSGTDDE

Regarding `Cc1ncsc1-c1ccc([C@H](C)NC(=O)[C@@H]2C[C@@H](O)CN2C(=O)C(c2cc(-c3cnc(N4CCC5(CC4)CC(c4ccc6cc(-c7ccccc7O)nnc6c4)C5)nc3)no2)C(C)C)cc1` (mixture of isomers) [Compound 65, (2S,4R)-4-hydroxy-1-(2-(3-(2-(2-(3-(2-hydroxyphenyl)cinnolin-7-yl)-7-azaspiro[3.5]nonan-7-yl)pyrimidin-5-yl)isoxazol-5-yl)-3-methylbutanoyl)-N-((S)-1-(4-(4-methylthiazol-5-yl)phenyl)ethyl)pyrrolidine-2-carboxamide], in assay [1], the DC50 is above 10 nM and the Dmax was above 75%. In assay [2], the DC50 was below 10 nM and the “BRM HiBit Degradation Maximum (%)” value is “A (“A” indicates maximum degradation ≥75%)”.
In the case of `Cc1ncsc1-c1ccc([C@H](C)NC(=O)[C@@H]2C[C@@H](O)CN2C(=O)[C@@H](c2cc(N3CCC4(CC3)CN(c3ccc5cc(-c6ccccc6O)nnc5c3)CCN4C)no2)C(C)C)cc1` [Compound 153, (2S,4R)-4-hydroxy-1-((R)-2-(3-(4-(3-(2-hydroxyphenyl)cinnolin-7-yl)-1-methyl-1,4,9-triazaspiro[5.5]undecan-9-yl)isoxazol-5-yl)-3-methylbutanoyl)-N-((S)-1-(4-(4-methylthiazol-5-yl)phenyl)ethyl)pyrrolidine-2-carboxamide], the Dmax in assay [1] was below 50%. In assay [2], the DC50 was below 10 nM and the “BRM HiBit Degradation Maximum (%)” value is reported as “A (“A” indicates maximum degradation ≥75%)”.
Taken in the same sequence, the figures for `Cc1ncsc1-c1ccc([C@H](C)NC(=O)[C@@H]2C[C@@H](O)CN2C(=O)[C@@H](c2cc(N3CCC(c4ccc5nnc(-c6ccccc6O)cc5c4)CC3)no2)C(C)C)cc1` [Compound 61, (2S,4R)-4-hydroxy-1-((R)-2-(3-(4-(3-(2-hydroxyphenyl)cinnolin-6-yl)piperidin-1-yl)isoxazol-5-yl)-3-methylbutanoyl)-N-((S)-1-(4-(4-methylthiazol-5-yl)phenyl)ethyl)pyrrolidine-2-carboxamide] were below 50%, above 10 nM and “A (“A” indicates maximum degradation ≥75%)”.
Taken in the same sequence, the figures for `COC[C@@H]1CN(c2cc([C@H](C(=O)N3C[C@H](O)C[C@H]3C(=O)N[C@@H](C)c3ccc(-c4scnc4C)cc3)C(C)C)on2)CCN1c1ccc2cc(-c3ccccc3O)nnc2c1` [Compound 196, (2S,4R)-4-hydroxy-1-((R)-2-(3-((S)-4-(3-(2-hydroxyphenyl)cinnolin-7-yl)-3-(methoxymethyl)piperazin-1-yl)isoxazol-5-yl)-3-methylbutanoyl)-N-((S)-1-(4-(4-methylthiazol-5-yl)phenyl)ethyl)pyrrolidine-2-carboxamide] were below 50%, above 10 nM and “B (“B” indicates maximum degradation ≥50%)”.
Taken in the same sequence, the figures for `CC(C)[C@@H](C(=O)N1C[C@H](O)C[C@H]1C(=O)NCc1ccccc1)c1cc(N2CC3(CN(c4ccc5cc(-c6ccccc6O)nnc5c4)C3)C2)no1` [Compound 111, (2S,4R)-N-benzyl-4-hydroxy-1-((R)-2-(3-(6-(3-(2-hydroxyphenyl)cinnolin-7-yl)-2,6-diazaspiro[3.3]heptan-2-yl)isoxazol-5-yl)-3-methylbutanoyl)pyrrolidine-2-carboxamide] were below 50%, below 10 nM and “A (“A” indicates maximum degradation ≥75%)”.
For `Cc1nc(N2CCC(c3ccc4nnc(-c5ccccc5O)cc4c3)CC2)ccc1-c1cc([C@H](C(=O)N2C[C@H](O)C[C@H]2C(=O)N[C@@H](C)c2ccc(-c3scnc3C)cc2)C(C)C)on1` [Compound 69, (2S,4R)-4-hydroxy-1-((R)-2-(3-(6-(4-(3-(2-hydroxyphenyl)cinnolin-6-yl)piperidin-1-yl)-2-methylpyridin-3-yl)isoxazol-5-yl)-3-methylbutanoyl)-N-((S)-1-(4-(4-methylthiazol-5-yl)phenyl)ethyl)pyrrolidine-2-carboxamide], in assay [1], the DC50 was above 100 nM and the Dmax was above 50%. In addition, in assay [2], the DC50 was below 10 nM and the “BRM HiBit Degradation Maximum (%)” value is “A (“A” indicates maximum degradation ≥75%)”.
As to `Cc1ncsc1-c1ccc([C@H](C)NC(=O)[C@@H]2C[C@@H](O)CN2C(=O)[C@@H](c2cc(-c3cnc(N4CCN(c5ccc6cc(-c7ccccc7O)nnc6c5)CC4)nc3)no2)C(C)C)cc1` [Compound 40], the Dmax in assay [1] is below 50%. Besides, in assay [2], the DC50 was below 10 nM and the “BRM HiBit Degradation Maximum (%)” value was “A (“A” indicates maximum degradation ≥75%)”.
The like results for `Cc1ncsc1-c1ccc(C(C)NC(=O)C2CC(O)CN2C(=O)[C@@H](c2cc(N3CCN([C@H]4CCN(Cc5cc6nnc(-c7ccccc7O)cc6cc5Cl)CC4(F)F)CC3)no2)C(C)C)cc1` (stereo in doubt) [Compound 216, (2R,4S)-1-((R)-2-(3-(4-((S)-1-((6-chloro-3-(2-hydroxyphenyl)cinnolin-7-yl)methyl)-3,3-difluoropiperidin-4-yl)piperazin-1-yl)isoxazol-5-yl)-3-methylbutanoyl)-4-hydroxy-N-((R)-1-(4-(4-methylthiazol-5-yl)phenyl)ethyl)pyrrolidine-2-carboxamide] were, in that order, below 50%, above 10 nM and “A (“A” indicates maximum degradation ≥75%)”.
Regarding `Cc1ncsc1-c1ccc([C@H](C)NC(=O)[C@@H]2C[C@@H](O)CN2C(=O)[C@@H](c2cc(-c3cnc(N4CC5(CN(c6ccc7nnc(-c8ccccc8O)cc7c6)C5)C4)nc3)no2)C(C)C)cc1` [Compound 243, (2S,4R)-4-hydroxy-1-((R)-2-(3-(2-(6-(3-(2-hydroxyphenyl)cinnolin-6-yl)-2,6-diazaspiro[3.3]heptan-2-yl)pyrimidin-5-yl)isoxazol-5-yl)-3-methylbutanoyl)-N-((S)-1-(4-(4-methylthiazol-5-yl)phenyl)ethyl)pyrrolidine-2-carboxamide], in assay [1], the DC50 was below 10 nM and the Dmax is above 75%. Also, in assay [2], the DC50 was below 10 nM and the “BRM HiBit Degradation Maximum (%)” value is given as “A (“A” indicates maximum degradation ≥75%)”.
On to `Cc1ncsc1-c1ccc([C@H](C)NC(=O)[C@@H]2C[C@@H](O)CN2C(=O)[C@@H](c2cc(N3CC4(CN(c5cc(C6CC6)c6cc(-c7ccccc7O)nnc6c5)C4)C3)no2)C(C)C)cc1` [Compound 125, (2S,4R)-1-((R)-2-(3-(6-(5-cyclopropyl-3-(2-hydroxyphenyl)cinnolin-7-yl)-2,6-diazaspiro[3.3]heptan-2-yl)isoxazol-5-yl)-3-methylbutanoyl)-4-hydroxy-N-((S)-1-(4-(4-methylthiazol-5-yl)phenyl)ethyl)pyrrolidine-2-carboxamide], for which the Dmax in assay [1] was below 50%. In addition, in assay [2], the DC50 is below 10 nM and the “BRM HiBit Degradation Maximum (%)” value was “A (“A” indicates maximum degradation ≥75%)”.
The like results for `Cc1ncsc1-c1ccc([C@H](C)NC(=O)[C@@H]2C[C@@H](O)CN2C(=O)[C@@H](c2cc(N3CCC[C@@H](c4ccc5nnc(-c6ccccc6O)cc5c4)C3)no2)C(C)C)cc1` [Compound 101, (2S,4R)-4-hydroxy-1-((R)-2-(3-((S)-3-(3-(2-hydroxyphenyl)cinnolin-6-yl)piperidin-1-yl)isoxazol-5-yl)-3-methylbutanoyl)-N-((S)-1-(4-(4-methylthiazol-5-yl)phenyl)ethyl)pyrrolidine-2-carboxamide] were, in that order, below 50%, above 10 nM and “A (“A” indicates maximum degradation ≥75%)”.
